Some results are limits rather than exact numbers.

The assay addresses T1, HIV-integrase (Human immunodeficiency virus type 1 group M subtype B, UniProt P12497).
T1 construct: Recombinant integrase (0.26 ng) was incubated with the beads
The assay can be described thus: HIV-Integrase Inhibition Activity (SPA bead integration assay with P33 labeled target DNA). The class given is biochemical. Particulars: recombinant integrase, class symbols; read-out: in vitro activity. On the procedure: HIV-Integrase Inhibition Activity. To evaluate in-vitro activity against HIV-integrase, 5 pmole of biotin labeled substrate DNA was bound to 100 μg of Streptavidin coated PVT SPA beads (Amersham Pharmacia Biotech). Recombinant integrase (0.26 ng) was incubated with the beads for 90 min at 37° C. Unbound enzyme was removed by washing the complex followed by addition of inhibitors and 0.1 fmol of P33 labeled target DNA. The reaction was stopped by adding EDTA to a final concentration of 10 mM. Samples were counted in TopCountNXT (Packard) and the CPM was used as a measure of integration. The reaction condition was as described in A. Engelman and R. Craigie, J. Virol. 69, 5908-5911 (1995). The sequences of substrate and target DNA were described in Nucleic Acid Research 22, 1121-1122 (1994). Activity equal to A refers to a compound having IC50=<10 nM while B and C denote compounds having […] and IC50>100 nM respectively.
Consider `COC1CCN(C(=O)C(=O)NC23CCC(CC2)Cn2c3nc(C(=O)NCc3ccc(F)cc3)c(O)c2=O)C1` (stereo not drawn) [Example 90, N-(4-Fluorobenzyl)-3-hydroxy-10-(((3-methoxy-1-pyrrolidinyl)(oxo)acetyl)amino)-4-oxo-4,6,7,8,9,10-hexahydro-7,10-ethanopyrimido[1,2-a]azepine-2-carboxamide], for which the IC50 is under 10 nM. For `O=C(NCc1ccc(F)cc1)c1nc2n(c(=O)c1O)CC1CCC2(NC(=O)N2CCOCC2)CC1` [Example 22, N-(4-Fluorobenzyl)-3-hydroxy-10-((4-morpholinylcarbonyl)amino)-4-oxo-4,6,7,8,9,10-hexahydro-7,10-ethanopyrimido[1,2-a]azepine-2-carboxamide] the value was 10 to 100 nM; for `CC(=O)NC12CCCC(Cn3c1nc(C(=O)NCc1ccc(F)cc1)c(O)c3=O)C2` (stereo not drawn) [Example 187, 7,11-Methano-4H-pyrimido[1,2-a]azocine-2-carboxamide, 11-(acetylamino)-N-[(4-fluorophenyl)methyl]-6,7,8,9,10,11-hexahydro-3-hydroxy-4-oxo-], under 10 nM; for `O=C(NC12CCC(CC1)Cn1c2nc(C(=O)NCc2ccc(F)cc2)c(O)c1=O)c1ccncc1` [Example 35, N-(4-Fluorobenzyl)-3-hydroxy-4-oxo-10-((4-pyridinylcarbonyl)amino)-4,6,7,8,9,10-hexahydro-7,10-ethanopyrimido[1,2-a]azepine-2-carboxamide], under 10 nM.

As for `CC(=O)N1CC[C@H](C(=O)NC23CCC(CC2)Cn2c3nc(C(=O)NCc3ccc(F)c(C)c3)c(O)c2=O)C1` [Example 282, 7,10-Ethanopyrimido[1,2-a]azepine-2-carboxamide, 10-[[[(3S)-1-acetyl-3-pyrrolidinyl]carbonyl]amino]-N-[(4-fluoro-3-methylphenyl)methyl]-4,6,7,8,9,10-hexahydro-3-hydroxy-4-oxo-], the IC50 is under 10 nM. The result for `Cc1cc(CNC(=O)c2nc3n(c(=O)c2O)CC2CCC3(NC(=O)C3(c4ccccn4)CC3)CC2)ccc1F` [Example 304, 7,10-Ethanopyrimido[1,2-a]azepine-2-carboxamide, N-[(4-fluoro-3-methylphenyl)methyl]-4,6,7,8,9,10-hexahydro-3-hydroxy-4-oxo-10-[[[1-(2-pyridinyl)cyclopropyl]carbonyl]amino]-] reads under 10 nM; that for `O=C(NC12CCC(CC1)Cn1c2nc(C(=O)NCc2ccc(F)cc2)c(O)c1=O)C(=O)N1CCN(CCO)CC1` [Example 72, N-(4-Fluorobenzyl)-3-hydroxy-10-(((4-(2-hydroxyethyl)-1-piperazinyl)(oxo)acetyl)amino)-4-oxo-4,6,7,8,9,10-hexahydro-7,10-ethanopyrimido[1,2-a]azepine-2-carboxamide], under 10 nM. On to `O=C(NC12COC(CCn3c1nc(C(=O)NCc1ccc(F)cc1)c(O)c3=O)C2)OCc1ccccc1` (stereo not drawn) [Example 217, Benzyl (2-((4-fluorobenzyl)carbamoyl)-3-hydroxy-4-oxo-7,8-dihydro-4 H,6H-8,11-methanopyrimido[2,1-d][1,5]oxazocin-11(10H)-yl)carbamate], for which the IC50 is under 10 nM. `Cc1ncoc1C(=O)NC12CCC(CC1)Cn1c2nc(C(=O)NCc2ccc(F)cc2)c(O)c1=O` [Example 34, N-(4-Fluorobenzyl)-3-hydroxy-10-(((4-methyl-1,3-oxazol-5-yl)carbonyl)amino)-4-oxo-4,6,7,8,9,10-hexahydro-7,10-ethanopyrimido[1,2-a]azepine-2-carboxamide]: the IC50 is under 10 nM. For the molecule `CS(=O)(=O)N1CCCC1C(=O)NC12CCC(CC1)Cn1c2nc(C(=O)NCc2ccc(F)cc2)c(O)c1=O` (stereo in doubt) [Example 254, 7,10-Ethanopyrimido[1,2-a]azepine-2-carboxamide, N-[(4-fluorophenyl)methyl]-4,6,7,8,9,10-hexahydro-3-hydroxy-10-[[[(2R)-1-(methylsulfonyl)-2-pyrrolidinyl]carbonyl]amino]-4-oxo-], the IC50 is under 10 nM. For the molecule `O=C(NC12CCC(CC1)Cn1c2nc(C(=O)NCc2ccc(F)cc2)c(O)c1=O)C(=O)N1CC[C@H](F)C1` [Example 103, N-(4-Fluorobenzyl)-10-((((3S)-3-fluoro-1-pyrrolidinyl)(oxo)acetyl)amino)-3-hydroxy-4-oxo-4,6,7,8,9,10-hexahydro-7,10-ethanopyrimido[1,2-a]azepine-2-carboxamide], the IC50 is under 10 nM. Turning to `CN(C(=O)C(=O)N1CC[C@@H](F)C1)C12CCC(CC1)Cn1c2nc(C(=O)NCc2ccc(F)cc2)c(O)c1=O` [Example 163, N-(4-Fluorobenzyl)-10-((((3R)-3-fluoro-1-pyrrolidinyl)(oxo)acetyl)(methyl)amino)-3-hydroxy-4-oxo-4,6,7,8,9,10-hexahydro-7,10-ethanopyrimido[1,2-a]azepine-2-carboxamide], the IC50 is under 10 nM. For the molecule `Cc1cc(CNC(=O)c2nc3n(c(=O)c2O)CC2CCC3(NC(=O)c3cccnc3)CC2)ccc1F` [Example 312, 7,10-Ethanopyrimido[1,2-a]azepine-2-carboxamide, N-[(4-fluoro-3-methylphenyl)methyl]-4,6,7,8,9,10-hexahydro-3-hydroxy-4-oxo-10-[(3-pyridinylcarbonyl)amino]-], the IC50 is under 10 nM. As for `CN(C)C(=O)C(=O)NC12CCC(CC1)Cn1c2nc(C(=O)NCc2cc(Cl)cc(Cl)c2)c(O)c1=O` [Example 383], the IC50 is under 10 nM. For `CC1(C)[C@@H]2CC[C@@]1(C)[C@@H](NC(=O)OCc1ccccc1)c1nc(C(=O)NCc3ccc(F)cc3)c(O)c(=O)n1C2` [Example 181, Benzyl((7S,10R,11R)-2-((4-fluorobenzyl)carbamoyl)-3-hydroxy-10,12,12-trimethyl-4-oxo-6,7,8,9,10,11-hexahydro-4H-7,10-methanopyrimido[1,2-a]azocin-11-yl)carbamate], the IC50 was 10 to 100 nM. Regarding `CN1CCC[C@@H]1C(=O)NC12CCC(CC1)Cn1c2nc(C(=O)NCc2ccc(F)cc2)c(O)c1=O` [Example 257, 7,10-Ethanopyrimido[1,2-a]azepine-2-carboxamide, N-[(4-fluorophenyl)methyl]-4,6,7,8,9,10-hexahydro-3-hydroxy-10-[[[(2R)-1-methyl-2-pyrrolidinyl]carbonyl]amino]-4-oxo-], the IC50 is 10 to 100 nM. As to `CC(C)N(C)C(=O)C(=O)NC12CCC(CC1)Cn1c2nc(C(=O)NCc2ccc(F)cc2)c(O)c1=O` [Example 105, N′-(2-((4-Fluorobenzyl)carbamoyl)-3-hydroxy-4-oxo-6,7,8,9-tetrahydro-7,10-ethanopyrimido[1,2-a]azepin-10(4H)-yl)-N-methyl-N-(1-methylethyl)ethanediamide], the IC50 was under 10 nM. On to `CCN(C(=O)C(=O)N(C)C)C12CCC(CC1)Cn1c2nc(C(=O)NCc2ccc(F)cc2)c(O)c1=O` [Example 173, N-Ethyl-N-(2-((4-fluorobenzyl)carbamoyl)-3-hydroxy-4-oxo-6,7,8,9-tetrahydro-7,11-ethanopyrimido[1,2-a]azepin-10(4H)-yl)-N′,N′-dimethylethanediamide], for which the IC50 is under 10 nM. On to `Cc1cnnn1-c1cc(F)ccc1CNC(=O)c1nc2n(c(=O)c1O)CC1CCC2(NC(=O)C(=O)N(C)C)CC1` [Example 106, N′-(2-((4-Fluoro-2-(5-methyl-1H-1,2,3-triazol-1-yl)benzyl)carbamoyl)-3-hydroxy-4-oxo-6,7,8,9-tetrahydro-7,10-ethanopyrimido[1,2-a]azepin-10(4H)-yl)-N,N-dimethylethanediamide], for which the IC50 fell in the range of 10 to 100 nM. With `CN(C)S(=O)(=O)NC12CCC(CC1)Cn1c2nc(C(=O)NCc2ccc(F)cc2)c(O)c1=O` [Example 40, 10-((Dimethylsulfamoyl)amino)-N-(4-fluorobenzyl)-3-hydroxy-4-oxo-4,6,7,8,9,10-hexahydro-7,10-ethanopyrimido[1,2-a]azepine-2-carboxamide], the IC50 is under 10 nM. For `O=C(NC12CCC(CC1)Cn1c2nc(C(=O)NCc2ccc(F)cc2)c(O)c1=O)c1ccccn1` [Example 26, N-(4-Fluorobenzyl)-3-hydroxy-4-oxo-10-((2-pyridinylcarbonyl)amino)-4,6,7,8,9,10-hexahydro-7,10-ethanopyrimido[1,2-a]azepine-2-carboxamide] the value was under 10 nM. The result for `CN1CCC[C@H]1C(=O)NC12CCC(CC1)Cn1c2nc(C(=O)NCc2ccc(F)cc2)c(O)c1=O` [Example 258, 7,10-Ethanopyrimido[1,2-a]azepine-2-carboxamide, N-[(4-fluorophenyl)methyl]-4,6,7,8,9,10-hexahydro-3-hydroxy-10-[[[(2S)-1-methyl-2-pyrrolidinyl]carbonyl]amino]-4-oxo-] reads 10 to 100 nM; that for `O=C(NC12CCC(Cn3c1nc(C(=O)NCc1ccc(F)cc1)c(O)c3=O)C2)OCc1ccccc1` (stereo not drawn) [Example 189, Carbamic acid, [2-[[[(4-fluorophenyl)methyl]amino]carbonyl]-6,7,8,9-tetrahydro-3-hydroxy-4-oxo-7,10-methanopyrimido[1,2-a]azepin-10(4H)-yl]-, phenylmethyl ester], under 10 nM; that for `Cc1nn(C)cc1CN(C)C(=O)C(=O)N(C)C12CCC(CC1)Cn1c2nc(C(=O)NCc2ccc(F)cc2)c(O)c1=O` [Example 169, N-((1,3-Dimethyl-1H-pyrazol-4-yl)methyl)-N′-(2-((4-fluorobenzyl)carbamoyl)-3-hydroxy-4-oxo-6,7,8,9-tetrahydro-7,10-ethanopyrimido[1,2-a]azepin-10(4H)-yl)-N,N′-dimethylethanediamide], under 10 nM.

Source of the values: patent US8129398B2 (priority 2008, dated 2012).
